System: YAPC
Assay: DCFDA flow cytometric ROS assay, acute
Assay type: cell-based, human
Conditions: 25 µM, 15 min
Description: According to the hypothesized mechanism of action (see Figure 3), pentathiepins can create oxidative stress via generation of reactive sulfur precursors. We have previously reported that a representative pentathiepin can increase the intracellular levels of ROS in two cancer cell lines. This effect was thus further evaluated with the new compounds in seven cell lines (Figure 8). The cells were incubated for 15 min with 25.0 µM pentathiepin and subsequently analyzed by using the intracellular ROS sensor 2′,7′-dichlorodihydrofluorescein diacetate (DCFDA) by flow cytometry.
In order to quantify intracellular ROS, we performed a flow cytometric assay based on the ROS-sensor 2′,7′-dichlorofluorescein diacetate (DCFDA). For acute effects of pentathiepins on intracellular ROS levels, the cells were stained with DCFDA first and subsequently incubated with 25 µM of compound for 10 min. […] Per condition, 250,000 cells were seeded in 2 mL of medium per well of a 6-well plate and allowed to adhere overnight. For measurement of acute ROS, the cells were stained with 1 mL of a 20 µM DCFDA-PBS solution for 30 min under standard incubation conditions. Afterwards, the solution was discarded, and the monolayer washed twice with 1 mL of PBS before 3 mL of medium containing 25 µM of pentathiepin was added for 10 min at 37 °C. After removing the solution and washing again with PBS, the cells were detached by using 0.5 mL of a diluted trypsin/EDTA-PBS solution (25%) and harvested with 1 mL of culture medium by carefully rinsing the wells. The cell suspension was transferred to 1.5 mL tubes, centrifuged for 5 min at 500× g, and washed with 1 mL of PBS. After removing the supernatant, each pellet was resuspended in 0.5 mL of PBS for measurement via the MACSquant Analyzer 10 at λEx/Em = 488/530 nm. Relative ROS levels resulting from treatment with pentathiepin were calculated by relating the fluorescence intensity of treated samples to the negative control. For the experiments covering periods of 24 and 48 h, the cells were incubated with the compounds first and stained with DCFDA afterwards. To assess the influence of additional GSH, we included 3 or 30 µM GSH to the medium containing 25 µM of pentathiepin, and the protocol was followed as described.

CCOc1c2c(c3ccc(C(=O)N4CCN(C(=O)c5ccc(F)cc5)CC4)cn13)SSSSS2 [Compound 5, (6-Ethoxy-[1,2,3,4,5]pentathiepino[6,7-a]indolizin-9-yl)(4-(4-fluorobenzoyl)piperazinyl)methanone]
intracellular ROS levels: the only increase was monitored after incubation with 5
